The results in this text go back to patent publication US9522914B2, “Azole derivative” (TAISHO PHARMACEUTICAL CO., LTD, priority 2011, dated 2016).

The test addresses Human V1b receptor (Homo sapiens (Human), UniProt P47901). In words: Binding Test for V1b Receptor ([3H]AVP, crude membrane preparation of 293FT cells). As to conditions: inhibition of [3H]AVP binding (0.4 to 1 nmol/L), room temperature, 60 minutes. In outline: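 Crude membranes from 293FT cells transiently expressing human V1b, incubated with [3H]AVP (0.4 to 1 nmol/L) and compound (0.01 nmol/L–1 μmol/L final) in Tris pH 7.4 with MgCl2 and 0.1% BSA, 60 min at room temperature. Bound label collected by filtration. Nonspecific binding defined with unlabeled AVP; IC50 from dose-response curve.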

As usually defined, the IC50 is the midpoint of a concentration-inhibition curve. Lower therefore signals greater potency in that assay.

Molecules are shown by their SMILES.

Chain of Human V1b receptor (P47901 whole entry): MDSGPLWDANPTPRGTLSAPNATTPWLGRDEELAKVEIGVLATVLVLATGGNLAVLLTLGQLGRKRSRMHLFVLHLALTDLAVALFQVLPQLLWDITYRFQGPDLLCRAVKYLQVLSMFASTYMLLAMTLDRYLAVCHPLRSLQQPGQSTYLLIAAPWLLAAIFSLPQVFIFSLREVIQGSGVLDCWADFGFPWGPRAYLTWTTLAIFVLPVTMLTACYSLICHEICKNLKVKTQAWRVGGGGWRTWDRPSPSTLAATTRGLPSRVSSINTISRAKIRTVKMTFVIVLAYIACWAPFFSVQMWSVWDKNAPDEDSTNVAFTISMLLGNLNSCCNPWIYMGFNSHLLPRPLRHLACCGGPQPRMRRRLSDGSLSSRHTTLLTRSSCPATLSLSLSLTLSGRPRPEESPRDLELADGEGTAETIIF

The molecule `CC(C)(C)NC(=O)Cc1nn(-c2ccc(CCN3C4CCC3COC4)cn2)c(=O)n1-c1ccc(F)c(Cl)c1` [Example D-33, N-tert-butyl-2-[4-(3-chloro-4-fluorophenyl)-1-{5-[2-(3-oxa-8-azabicyclo[3.2.1]oct-8-yl)ethyl]pyridin-2-yl}-5-oxo-4,5-dihydro-1H-1,2,4-triazol-3-yl]acetamide] registered a half-inhibitory concentration (IC50) of 9.1 nM.

The molecule `COc1cc(-n2c(CC(=O)NC(C)C)nn(-c3ccc(CCN4C5CCC4COC5)cn3)c2=O)ccc1F` [Example D-38, 2-[4-(4-fluoro-3-methoxyphenyl)-1-{5-[2-(3-oxa-8-azabicyclo[3.2.1]oct-8-yl)ethyl]pyridin-2-yl}-5-oxo-4,5-dihydro-1H-1,2,4-triazol-3-yl]-N-(propan-2-yl)acetamide] gave an IC50 of 10 to 100 nM. Turning to `CC(C)NC(=O)Cc1nn(-c2ccc(CC(C)N3CCOCC3)cn2)c(=O)n1-c1cccc(Cl)c1` [Example D-19, 2-[4-(3-chlorophenyl)-1-{5-[2-(morpholin-4-yl)propyl]pyridin-2-yl}-5-oxo-4,5-dihydro-1H-1,2,4-triazol-3-yl]-N-(propan-2-yl)acetamide], the IC50 fell in the range of 10 to 100 nM. For `CC(C)NC(=O)Cc1cn(-c2ccc(CCN3CC4(COC4)C3)cc2)nc1-c1cccc(Cl)c1` [Example C-04, 2-[3-(3-chlorophenyl)-1-{4-[2-(2-oxa-6-azaspiro[3.3]hept-6-yl)ethyl]phenyl}-1H-pyrazol-4-yl]-N-(propan-2-yl)acetamide] the value was 10 to 100 nM. For `CC(C)NC(=O)Cc1nn(-c2ccc(CCN3C4CCC3COC4)c(F)c2)c(=O)n1-c1cccc(Cl)c1` [Example D-21, 2-[4-(3-chlorophenyl)-1-{3-fluoro-4-[2-(3-oxa-8-azabicyclo[3.2.1]oct-8-yl)ethyl]phenyl}-5-oxo-4,5-dihydro-1H-1,2,4-triazol-3-yl]-N-(propan-2-yl)acetamide] the value was 7.5 nM; for `COc1cc(-n2c(CC(=O)NC(C)(C)C)nn(-c3ccc(CCN4C5CCC4COC5)cc3)c2=O)ccc1F` [Example D-10, N-tert-butyl-2-[4-(4-fluoro-3-methoxyphenyl)-1-{4-[2-(3-oxa-8-azabicyclo[3.2.1]oct-8-yl)ethyl]phenyl}-5-oxo-4,5-dihydro-1H-1,2,4-triazol-3-yl]acetamide], 7.1 nM; for `COc1cccc(-c2nc(-c3ccc(CCN4C5CCC4COC5)cc3)cn2CC(=O)NC(C)C)c1` [Example A-42, 2-[2-(3-methoxyphenyl)-4-{4-[2-(3-oxa-8-azabicyclo[3.2.1]oct-8-yl)ethyl]phenyl}-1H-imidazol-1-yl]-N-(propan-2-yl)acetamide], 6.3 nM. Consider `CC(C)NC(=O)Cc1nn(-c2ccc(CCN3CCOCC3)cn2)c(=O)n1-c1cccc(Cl)c1` [Example D-04, 2-[4-(3-chlorophenyl)-1-{5-[2-(morpholin-4-yl)ethyl]pyridin-2-yl}-5-oxo-4,5-dihydro-1H-1,2,4-triazol-3-yl]-N-(propan-2-yl)acetamide], for which the IC50 lay within 100 to 1000 nM. Consider `CC(C)(C)NC(=O)Cc1nn(-c2ccc(CCN3CCOCC3)cn2)c(=O)n1-c1ccc(F)c(Cl)c1` [Example D-32, N-tert-butyl-2-[4-(3-chloro-4-fluorophenyl)-1-{5-[2-(morpholin-4-yl)ethyl]pyridin-2-yl}-5-oxo-4,5-dihydro-1H-1,2,4-triazol-3-yl]acetamide], for which the IC50 was 17 nM. Molecule `CC(C)NC(=O)Cn1nc(-c2ccc(CCN3CCOCC3)cc2)cc1-c1cccc(Cl)c1` [Example C-07, 2-[5-(3-chlorophenyl)-3-{4-[2-(morpholin-4-yl)ethyl]phenyl}-1H-pyrazol-1-yl]-N-(propan-2-yl)acetamide] gave a half-maximal inhibitory concentration (IC50) of 7.1 nM. Under `CC(C)NC(=O)Cc1nn(-c2ccc(CCN3CCOCC3)cn2)c(=O)n1-c1ccc(F)c(Cl)c1` [Example D-28, 2-[4-(3-chloro-4-fluorophenyl)-1-{5-[2-(morpholin-4-yl)ethyl]pyridin-2-yl}-5-oxo-4,5-dihydro-1H-1,2,4-triazol-3-yl]-N-(propan-2-yl)acetamide] stands 10 to 100 nM; under `CC(C)NC(=O)Cc1oc(-c2ccc(CCN3CCCCC3)cc2)nc1-c1cccc(Cl)c1` [Example C-10, 2-[4-(3-chlorophenyl)-2-{4-[2-(piperidin-1-yl)ethyl]phenyl}-1,3-oxazol-5-yl]-N-(propan-2-yl)acetamide], 6.5 nM; under `COc1cccc(-c2nc(-c3ccc(CCN4CCC(C)(O)CC4)cc3)nn2CC(=O)NC(C)C)c1` [Example B-36, 2-[3-{4-[2-(4-hydroxy-4-methylpiperidin-1-yl)ethyl]phenyl}-5-(3-methoxyphenyl)-1H-1,2,4-triazol-1-yl]-N-(propan-2-yl)acetamide], 10 to 100 nM. Consider `CC(C)NC(=O)Cc1nn(-c2ccc(CCN3CCCC3)cc2)c(=O)n1-c1cccc(Cl)c1` [Example D-45, 2-[4-(3-chlorophenyl)-5-oxo-1-{4-[2-(pyrrolidin-1-yl)ethyl]phenyl}-4,5-dihydro-1H-1,2,4-triazol-3-yl]-N-(propan-2-yl)acetamide], for which the IC50 was 10 to 100 nM.

For `CC(C)NC(=O)Cn1cc(C(=O)N(C)C2CCC(N3CCOCC3)CC2)nc1-c1cccc(Cl)c1` (stereo not shown) [Example A-48, 2-(3-chlorophenyl)-N-methyl-N-[4-(morpholin-4-yl)cyclohexyl]-1-[2-oxo-2-(propan-2-ylamino)ethyl]-1H-imidazole-4-carboxamide], the IC50 lay within 100 to 1000 nM. In the case of `COc1cccc(-n2c(CC(=O)NC(C)(C)C)nn(-c3ccc(CCN4C5CCC4COC5)cn3)c2=O)c1` [Example D-09, N-tert-butyl-2-[4-(3-methoxyphenyl)-1-{5-[2-(3-oxa-8-azabicyclo[3.2.1]oct-8-yl)ethyl]pyridin-2-yl}-5-oxo-4,5-dihydro-1H-1,2,4-triazol-3-yl]acetamide], the 50% inhibitory concentration (IC50) lay within 10 to 100 nM.

As to `CC(C)NC(=O)Cn1cc(-n2ccc(CCN3CCOCC3)cc2=O)nc1-c1cccc(Cl)c1` [Example A-45, 2-[2-(3-chlorophenyl)-4-{4-[2-(morpholin-4-yl)ethyl]-2-oxopyridin-1(2H)-yl}-1H-imidazol-1-yl]-N-(propan-2-yl)acetamide], the IC50 is 34 nM. For `CCN(CCOC)CCc1ccc(-c2cn(CC(=O)NC(C)C)c(-c3ccc(F)c(OC)c3)n2)cc1` [Example A-32, 2-[4-(4-{2-[ethyl(2-methoxyethyl)amino]ethyl}phenyl)-2-(4-fluoro-3-methoxyphenyl)-1H-imidazol-1-yl]-N-(propan-2-yl)acetamide] the value was 100 to 1000 nM; for `CC(C)NC(=O)Cn1cc(-c2ccc(CCN3CCCCC3)cc2)nc1-c1cccc(Cl)c1` [Example A-01, 2-[2-(3-chlorophenyl)-4-{4-[2-(piperidin-1-yl)ethyl]phenyl}-1H-imidazol-1-yl]-N-(propan-2-yl)acetamide], 15 nM; for `COc1cc(-c2nc(-c3ccc(CCN4CCCC(C#N)C4)cc3)cn2CC(=O)NC(C)C)ccc1F` (stereo not shown) [Example A-13, 2-[4-{4-[2-(3-cyanopiperidin-1-yl)ethyl]phenyl}-2-(4-fluoro-3-methoxyphenyl)-1H-imidazol-1-yl]-N-(propan-2-yl)acetamide], 10 to 100 nM.

`COc1cc(-n2c(CC(=O)NC(C)(C)C)nn(-c3ccc(CCN4C5CCC4COC5)cn3)c2=O)ccc1F` [Example D-12, N-tert-butyl-2-[4-(4-fluoro-3-methoxyphenyl)-1-{5-[2-(3-oxa-8-azabicyclo[3.2.1]oct-8-yl)ethyl]pyridin-2-yl}-5-oxo-4,5-dihydro-1H-1,2,4-triazol-3-yl]acetamide] gave an IC50 of 7 nM. Under `CC(C)NC(=O)Cc1nn(-c2ccc(CCN3CCC(C)(O)CC3)cc2)c(=O)n1-c1cccc(Cl)c1` [Example D-55, 2-[4-(3-chlorophenyl)-1-{4-[2-(4-hydroxy-4-methylpiperidin-1-yl)ethyl]phenyl}-5-oxo-4,5-dihydro-1H-1,2,4-triazol-3-yl]-N-(propan-2-yl)acetamide] stands 100 to 1000 nM; under `CC(C)NC(=O)Cn1cc(-c2ccc(CCN3CCCC(O)C3)cc2)nc1-c1cccc(Cl)c1` (stereo not shown) [Example A-05, 2-[2-(3-chlorophenyl)-4-{4-[2-(3-hydroxypiperidin-1-yl)ethyl]phenyl}-1H-imidazol-1-yl]-N-(propan-2-yl)acetamide], 10 to 100 nM. Under `COc1cc(-n2c(CC(=O)NC(C)(C)C)nn(-c3ccc(CCN4CCOCC4)cn3)c2=O)ccc1F` [Example D-11, N-tert-butyl-2-[4-(4-fluoro-3-methoxyphenyl)-1-{5-[2-(morpholin-4-yl)ethyl]pyridin-2-yl}-5-oxo-4,5-dihydro-1H-1,2,4-triazol-3-yl]acetamide] stands 10 to 100 nM; under `CC(C)(C)NC(=O)Cc1nn(-c2ccc(CCN3C4CCC3COC4)cn2)c(=O)n1-c1cccc(Cl)c1` [Example D-16, N-tert-butyl-2-[4-(3-chlorophenyl)-1-{5-[2-(3-oxa-8-azabicyclo[3.2.1]oct-8-yl)ethyl]pyridin-2-yl}-5-oxo-4,5-dihydro-1H-1,2,4-triazol-3-yl]acetamide], 10 to 100 nM; under `COc1cc(-n2nc(CC(=O)NC(C)C)n(-c3cccc(Cl)c3)c2=O)ccc1CCN1C2CCC1COC2` [Example D-23, 2-[4-(3-chlorophenyl)-1-{3-methoxy-4-[2-(3-oxa-8-azabicyclo[3.2.1]oct-8-yl)ethyl]phenyl}-5-oxo-4,5-dihydro-1H-1,2,4-triazol-3-yl]-N-(propan-2-yl)acetamide], 3.3 nM. `COc1cc(-c2nc(-c3ccc(CCN4C5CCC4COC5)cn3)nn2CC(=O)NC(C)C)ccc1F` [Example B-06, 2-[5-(4-fluoro-3-methoxyphenyl)-3-{5-[2-(3-oxa-8-azabicyclo[3.2.1]oct-8-yl)ethyl]pyridin-2-yl}-1H-1,2,4-triazol-1-yl]-N-(propan-2-yl)acetamide]: the IC50 was determined as 3.3 nM. In turn, `CC(C)NC(=O)Cc1nn(-c2ccc(CCN3CCC4CCCCC4C3)cc2)c(=O)n1-c1cccc(Cl)c1` [Example D-51, 2-[4-(3-chlorophenyl)-1-{4-[2-(octahydroisoquinolin-2(1H)-yl)ethyl]phenyl}-5-oxo-4,5-dihydro-1H-1,2,4-triazol-3-yl]-N-(propan-2-yl)acetamide] had an IC50 of 100 to 1000 nM.
